Source: patent US6355674B1, “Aminotetralins as 5-HT1D α Agonists” (Eli Lilly and Company, priority 1997, dated 2002)
Counter-ions that a name gives are not always drawn.

Structure (SMILES)	melting point
COCCOCc1cccc2c1CC(N(C)C)CC2 (stereo not drawn) (as salt: hydrochloride)	147 to 148 °C
CN(C)C1CCc2cccc(C3CCCC3)c2C1 (stereo not drawn) (as salt: hydrochloride)	158 to 159 °C
Cc1cccc2c1C[C@H](N(C)C)CC2 (as salt: hydrochloride)	180 to 181 °C (dec.)
C/C=C(\CC)c1cccc2c1C[C@H](N(C)C)CC2 (as salt: hydrochloride)	158 to 160 °C

Second part, the molecule after the results:

melting point	Structure (SMILES)
186 to 187 °C	CN(C)C1CCc2cccc(C3(O)CCCCCC3)c2C1 (stereo not drawn) (as salt: hydrobromid) (hydrate or solvate)
210 to 211 °C	CN(C)C1CCc2cccc(C3(O)CCCCC3)c2C1 (stereo not drawn) (as salt: hydrobromid) (hydrate or solvate)
